Assay results reported in US20150143553A1, “Methods And Compositions Comprising A Drosophila Model Of Amyotrophic Lateral Sclerosis” (priority 2013, published 2015).
Counter-ions that a name gives are not always drawn.

Test system: Drosophila larvae expressing wild-type TDP-43 in motor neurons
Test: Drug screen: rescue of lethality caused by wild-type TDP-43 expression in motor neurons (D42 Gal4)
Format: in vivo
Details: transgene WT2; 30 μM in fly food
Source text: (§1) […] Larvae expressing TDP-43 (wild type or mutant, as shown) are raised on drug containing food.
(§2) […] Larvae expressing TDP-43 (wt or mutant) were raised on drug containing food.
Using a Drosophila model of ALS based on TDP-43 that recapitulates several aspects of the disease pathophysiology (33, 35), a drug screen aimed at identifying FDA approved compounds with neuroprotective potential in vivo were designed (FIG. 37A). […] This phenotype was used to screen for drug candidates with therapeutic potential as determined by their ability to rescue pupal lethality and produce viable adults with extended wings (FIG. 37A). […]
(§3) UAS TDP-43 males were crossed with D42-Gal4 female virgins on fly food containing either DMSO or pioglitazone. For DMSO controls, the same volume of DMSO as the corresponding drug concentration was added. Bromophenol blue was added to a final concentration of approximately 0.02% to ensure homogeneity. Crosses were made on drug food with 3 female virgins and 2 males in each vial, and were maintained at 25° C. unless noted. The parents were discarded after 5-7 days then the vials were screened for adult progeny with straight wings from day 14 to day 25. All adults were screened for TDP-43 expression by visualizing the YFP tag. Total number of pupae was counted on day 25. Percent survival was calculated using the formula (total number of straight-winged adults/total number of pupae)×100. All experiments were performed in triplicate.

Row | Compound | Preliminary rescue result: adults with normal wings
1 | N#CC(c1ccc(Cl)cc1)c1c(Cl)cc(-n2ncc(=O)[nH]c2=O)cc1Cl (stereo not shown) [Diclazuril] | 2 Adults
2 | CN1CCN(c2c(F)cc3c(=O)c(C(=O)O)cn(CCF)c3c2F)CC1 [Fleroxacin] | 3 Adults
3 | C1N2CN3CN1CN(C2)C3 [Methenamine] | 2 Adults
4 | COc1cc2nc(N3CCN(C(=O)C4CCCO4)CC3)nc(N)c2cc1OC.Cl (stereo not shown) [Terazosin HC1] | 3 Adult Normal Wings Adults
5 | CC1(C)S[C@@H]2[C@H](NC(=O)[C@H](C(=O)[O-])c3ccsc3)C(=O)N2[C@H]1C(=O)[O-].[Na+].[Na+] [Ticarcillin Sodiim] | 1 Adult Normal Wings Adults
6 | CN(C)CCOc1ccc(/C(=C(/CCCl)c2ccccc2)c2ccccc2)cc1 [Toremifene] | 1 Adult Normal Wings Adults
7 | CCCCNc1c(C(=O)OCC)c(C)nc2c1cnn2CC [Tracazolate Hydrochloride] | 1 Adult Normal Wings Adults
8 | COc1ccccc1N1CCN(CCCNc2cc(=O)n(C)c(=O)n2C)CC1 [Urapidil Hydrochloride] | 1 Adult Normal Wings Adults
9 | C[C@H](CCC(=O)O)[C@H]1CC[C@H]2[C@@H]3[C@@H](O)C[C@@H]4C[C@H](O)CC[C@]4(C)[C@H]3CC[C@]12C [Urosiol] | 2 Adult Normal Wings Adults
10 | COc1cc(-c2ccc(=O)[nH]n2)ccc1OC(F)F [Zardaverine] | 1 Adult Normal Wings Adults
11 | Cc1cc(CC(=O)[O-])n(C)c1C(=O)c1ccc(Cl)cc1.O.O.[Na+] [Zomepirac Na Salt] | 3 Adult Normal Wings Adults
12 | CCCc1nc2c(C)cc(-c3nc4ccccc4n3C)cc2n1Cc1ccc(-c2ccccc2C(=O)O)cc1 [′Telmisartan] | 2/2 Adult Normal Wings
13 | Carbinoxamine Maleate Salt | 1 Adult Normal Wings Adults
14 | Verteporfin | 1 Adult Normal Wings Adults

Same assay, conditions: transgene WT2; 50 μM in fly food

Row | Compound | Preliminary rescue result: adults with normal wings
15 | COc1ccc(-c2ccc(=N)n(CCCC(=O)O)n2)cc1 [Gabazine] | 4 Adults Normal Wings,
16 | CCOC(=O)C1=C(C)NC(C)=C(C(=O)OCC)C1c1ccccc1/C=C/C(=O)OC(C)(C)C [Lacidipine] | 3 Adults
17 | CCCN(CCC)C(=O)C(CCC(=O)O)NC(=O)c1ccccc1 (stereo not shown) [Proglumide] | 1 Adult Normal Wings, Adults
18 | CCCCCCCCNC(C)C(O)c1ccc(SC(C)C)cc1 (stereo not shown) [Suloctidil] | 6 Adults Normal Wings
19 | CCN1CCCC1CNC(=O)c1cc(S(N)(=O)=O)ccc1OC (stereo not shown) [Sulpiride] | 1 Adult Normal Wings Adults
20 | Nc1c2c(nc3ccccc13)CCCC2 [Tacrine Hydrochloride Hydrate] | 4 Adults Normal Wings
21 | NC1CCN(c2nc3c(cc2F)c(=O)c(C(=O)O)cn3-c2ccc(F)cc2F)C1 (stereo not shown) [Tosufloxacin Hydrochloride] | 3 Adult Normal Wings Adults
22 | CCCc1nc(C)c2c(=O)[nH]c(-c3cc(S(=O)(=O)N4CCN(CC)CC4)ccc3OCC)nn12 [Vardenafil] | 3 Adult Normal Wings Adults
23 | CCN(C(C)=O)c1cccc(-c2ccnc3c(C#N)cnn23)c1 [Zaleplon] | 1 Adult Normal Wings Adults
24 | Thioproperazine Dimesylate | 1 Adult Normal Wings Adults

Test system: Drosophila larvae expressing G298S TDP-43 in motor neurons
Test: Drug screen: rescue of lethality caused by G298S TDP-43 expression in motor neurons (D42 Gal4)
Format: in vivo
Details: transgene G298S4; 30 μM in fly food
Source text: as §1, §2
Using a Drosophila model of ALS based on TDP-43 that recapitulates several aspects of the disease pathophysiology (33, 35), a drug screen aimed at identifying FDA approved compounds with neuroprotective potential in vivo were designed (FIG. 37A). […] This phenotype was used to screen for drug candidates with therapeutic potential as determined by their ability to rescue pupal lethality and produce viable adults with extended wings (FIG. 37A).
Larvae expressing TDP-43 in motor neurons (D42>TDP-43) were raised on fly food containing different amounts of drug (1, 10 and 25 μM, see Materials and Methods for details) or Dimethyl Sulfoxide (DMSO) as vehicle control (FIG. 37B, C).
as §3

Row | Compound | Preliminary rescue result: adults with normal wings
25 | c1ccc(-c2ccc(C(c3ccccc3)n3ccnc3)cc2)cc1 (stereo not shown) [Bifonazole] | 1 Adult Normal Wings Adults

Same assay, conditions: transgene G298S; 30 μM in fly food

Row | Compound | Preliminary rescue result: adults with normal wings
26 | Nc1nc(NC2CC2)c2ncn([C@H]3C=C[C@@H](CO)C3)c2n1 [Abacavir Sulfate] | 1 Adult Normal Wings Adults
27 | CCn1nc(C(=O)O)c(=O)c2cc3c(cc21)OCO3 [Cinoxacin] | 1 Adult Normal Wings Adults
28 | N#CC(c1ccc(Cl)cc1)c1c(Cl)cc(-n2ncc(=O)[nH]c2=O)cc1Cl (stereo not shown) [Diclazuril] | 1 Adults
29 | CN1CCN(c2c(F)cc3c(=O)c(C(=O)O)cn(CCF)c3c2F)CC1 [Fleroxacin] | 1 Adults
30 | CCC1(c2cccc(O)c2)CCCCN(C)C1 (stereo not shown) [Meptazinol Hydrochloride] | 1 Adult Normal Wing Adults
31 | C1N2CN3CN1CN(C2)C3 [Methenamine] | 1 Adults
32 | CN(Cc1cc(Br)cc(Br)c1N)C1CCCCC1.Cl [Romhexine Hydrochloride] | 1/2 Adult Normal Wings
33 | Cn1c([N+](=O)[O-])cnc1COC(N)=O [Ronidazole] | 1 Adult Normal Wings Adults
34 | O=C(NCCNCC(O)COc1ccc(O)cc1)N1CCOCC1.O=C(NCCNCC(O)COc1ccc(O)cc1)N1CCOCC1.O=C(O)/C=C/C(=O)O (stereo not shown) [Xamoterol HemifiμMarate] | 1 Adult Normal Wing Adults

Same assay, conditions: transgene G298S; 50 μM in fly food

Row | Compound | Preliminary rescue result: adults with normal wings
35 | NCCCNCCSP(=O)(O)O [Amifostine] | 1 Adult Normal Wings Adults
36 | CN(C)CCC=C1c2ccccc2CCc2ccccc21.Cl [Amitryptiline Hydrochloride] | 1 Adult Normal Wings Adults
37 | C[C@H](CCC(=O)O)[C@H]1CC[C@H]2[C@@H]3[C@H](O)C[C@@H]4C[C@H](O)CC[C@]4(C)[C@H]3CC[C@]12C [Chenodiol] | 1 Adult Normal Wings Adults
38 | CN1CCN(C2=Nc3cc(Cl)ccc3Nc3ccccc32)CC1 [Clozapine] | 1 Adult Normal Wings Adults
39 | CCN(CC)C(=O)/C(C#N)=C/c1cc(O)c(O)c([N+](=O)[O-])c1 [Entacapone] | 5 Adult Normal Wings Adults
40 | O=C(O)c1ccccc1Nc1cccc(C(F)(F)F)c1 [Flufenamic Acid] | 1 Adult Normal Wings Adults
41 | COc1ccc(-c2ccc(=N)n(CCCC(=O)O)n2)cc1 [Gabazine] | 2 Adults Straight Wings
42 | COc1cc2ncnc(Nc3ccc(F)c(Cl)c3)c2cc1OCCCN1CCOCC1 [Gefitinib] | 1 Adult Normal Wings Adults
43 | C[N+]1(C)CCOC(O)(c2ccc(-c3ccc(C4(O)C[N+](C)(C)CCO4)cc3)cc2)C1.[Br-].[Br-] (stereo not shown) [Hemicholinium Bromide] | 1 Adult Normal Wings Adults
44 | CCOC(=O)C1=C(C)NC(C)=C(C(=O)OCC)C1c1ccccc1/C=C/C(=O)OC(C)(C)C [Lacidipine] | 7 Adults
45 | Nc1ccn([C@@H]2CS[C@H](CO)O2)c(=O)n1 [Lamivudine] | 2 Adults Normal Wings
46 | C[N+]1(C)CCCC(OC(=O)C(O)(c2ccccc2)c2ccccc2)C1 (stereo not shown) [Mepenzolate Bromide] | 2 Adult Normal Wings Adults
47 | Cc1ccccc1C(OCCN(C)C)c1ccccc1 (stereo not shown) [Orphenadrine] | 1 Adult Normal Wings Adults
48 | CN(C)CCC(c1ccccc1)c1ccccn1 (stereo not shown) [Pheniramine Maleate] | 1 Adult Normal Wings Adults
49 | CCCN(CCC)C(=O)C(CCC(=O)O)NC(=O)c1ccccc1 (stereo not shown) [Proglumide] | 3 Adults Normal Wings
50 | O=c1n(CCCN2CCN(c3cccc(Cl)c3)CC2)nc2ccccn12 [Trazodone] | 1 Adult Normal Wings Adults
51 | COc1ccc(C(CN(C)C)C2(O)CCCCC2)cc1 (stereo not shown) [Venlafaxine] | 1 Adult Normal Wings Adults
52 | Pyrantel Tartrate | 1 Adult Normal Wings Adults
